Holding throughout (type): biochemical
The target in test [1] is T1, rFIXa (human) (Homo sapiens, UniProt P00740). The experiment in a line: Kinetics of cleavage of chromogenic peptide substrates by rFIXa with ethylene glycol (Lineweaver Burk). Also noted: coding for the FIX protease domain from amino acid position 181 to 415; Met (ATG start codon) (N); made in house. The note with it: pH 7.4. Here is the method: (§1) MeSO2 -D-HHT-Gly-Arg-pNA (0.102-1.02 mmol/l)
0.48 μmol/l rFIXa (human)
MOC-D-Nle-Gly-Arg-pNA (0.102-1.02 mmol/l)
MeSO2 -D-CHG-Gly-Arg-pNA (0.102-1.02 mmol/l)
0.28 μmol/l rFIXa (human)
(§2) The kinetic constants (Kcat /Km) were determined graphically according to Lineweaver Burk (Km and Kcat cannot be determined separately since the straight lines go through the origin).
Target sequence in this assay (P00740 227-461): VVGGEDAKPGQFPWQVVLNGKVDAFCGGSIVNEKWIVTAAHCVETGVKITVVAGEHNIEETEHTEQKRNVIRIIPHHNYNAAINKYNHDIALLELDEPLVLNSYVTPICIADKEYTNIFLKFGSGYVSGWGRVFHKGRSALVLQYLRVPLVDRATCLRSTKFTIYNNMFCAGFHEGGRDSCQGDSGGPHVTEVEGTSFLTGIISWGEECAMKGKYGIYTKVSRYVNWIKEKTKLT
Target sequence in this assay (P00740 131-226): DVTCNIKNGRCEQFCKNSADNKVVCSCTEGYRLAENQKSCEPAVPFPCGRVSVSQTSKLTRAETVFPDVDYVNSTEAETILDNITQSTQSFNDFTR

For test [2], the target named is T1, rFIXa (human). The test is described as follows: Influence of known protease inhibitors on the activity of rFIXa. On the set-up: coding for the FIX protease domain from amino acid position 181 to 415; Met (ATG start codon) (N); made in house. Here is the method: Specific FIXa inhibitors can be identified by the inhibition of FIXa activity. For this purpose the FIXa activity is determined with a substrate of the R-D-Xxx-Gly-Arg-pNA type (Xxx=hydrophobic amino acid) in the absence and presence of the substance to be tested or of a substance mixture and the percentage inhibition is calculated from the quotients. The inhibition constant Ki is determined from the inhibition kinetics. The measurement signal is amplified by the presence of high concentrations of certain alcohols (preferably ethylene glycol).
200 μl buffer (100 mmol/l Tris-HCl, 100 mmol/l NaCl, 5 mmol/l CaCl2, 20-40% alcohol, pH 7-9) the buffer contains the inhibitor at various concentrations […]
The reaction can also be terminated after 5-10 min by stopping with acetic acid (25 μl, 50%), the absorbance is determined at 405 nm against a reagent blank.
Influence of Known Protease Inhibitors on the Activity of rFIXa Using Different pHs, Alcohols and Alcohol Concentrations 42 mmol/l Tris-HCl, pH 7.4 or 8.5 substrate MeSO2 -D-CHG-Gly-Arg-pNA (1.02 mmol/l) […]
inhibitor at stepped concentrations (4.1-163 μmol/l)
Known synthetic inhibitors of the 3-amidinophenylalanine type were used as inhibitors (Sturzebecher et al, J. Enzyme. Inhibition 9 (1995) 87 and WO 92/08709) (1991)). The inhibitory effect was examined at a low and at a high alcohol concentration as an example.
Target sequence in this assay (P00740 227-461 limits assumed): as the sequence (P00740 227-461) above
Target sequence in this assay (P00740 131-226 limits assumed): as the sequence (P00740 131-226) above

The target of the next test is native FIXa (human) (Homo sapiens, UniProt P00740). The test is described as follows: Kinetics of cleavage of chromogenic peptide substrate by native FIXa with ethylene glycol (Lineweaver Burk). On the set-up: 0.14 μmol/l native FIXa (human). The note with it: native FIXa 0.29 μmol/l, pH 7.4. As for the experimental part: as §1
Chain of native FIXa (human) (P00740 227-461 limits assumed): as the sequence (P00740 227-461) above
Chain of native FIXa (human) (P00740 47-191 partner limits assumed): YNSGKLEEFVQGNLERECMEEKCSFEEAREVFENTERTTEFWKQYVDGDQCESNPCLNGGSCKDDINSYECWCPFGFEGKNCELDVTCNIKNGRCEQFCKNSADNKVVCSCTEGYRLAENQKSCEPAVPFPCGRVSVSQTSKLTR
0.29 μmol/l native FIXa (human)
as §2

Square brackets hold non-standard residues; d marks the D form. Peptide text beside a SMILES is read from it. * marks the point of attachment. dChg = N[C@@H](C(=O)O)C1CCCCC1; pNA = O=[N+]([O-])c1ccc(N*)cc1; dNle = CCCC[C@@H](N)C(=O)O; Ms = CS(=O)(=O)*; Moc = COC(=O)*

With `CS(=O)(=O)N[C@@H](C(=O)NCC(=O)N[C@@H](CCCNC(=N)N)C(=O)Nc1ccc([N+](=O)[O-])cc1)C1CCCCC1` [MeSO2 --D--CHG--Gly--Arg--pNA, MeSO2 -D-CHG-Gly-Arg-pNA] (Ms-[dChg]-Gly-Arg-pNA), the “kkat /Km” value was found to be 637 M⁻¹ s⁻¹ at rFIXa (human) [1] (substrate MeSO2-D-CHG-Gly-Arg-pNA, rFIXa […], 8% ethylene glycol); 1974 M⁻¹ s⁻¹ on rFIXa (human) [1] (substrate MeSO2-D-CHG-Gly-Arg-pNA, rFIXa […], 16% ethylene glycol); 2880 M⁻¹ s⁻¹ on rFIXa (human) [1] (substrate MeSO2-D-CHG-Gly-Arg-pNA, rFIXa […], 25% ethylene glycol); 3480 M⁻¹ s⁻¹ at rFIXa (human) [1] (substrate MeSO2-D-CHG-Gly-Arg-pNA, rFIXa […], 33% ethylene glycol); 1929 M⁻¹ s⁻¹ at rFIXa (human) [1] (substrate MeSO2-D-CHG-Gly-Arg-pNA, rFIXa […], 41% ethylene glycol); 576 M⁻¹ s⁻¹ at rFIXa (human) [1] (substrate MeSO2-D-CHG-Gly-Arg-pNA, rFIXa […], 50% ethylene glycol).
On to `CCCC[C@@H](NC(=O)OC)C(=O)NCC(=O)N[C@@H](CCCNC(=N)N)C(=O)Nc1ccc([N+](=O)[O-])cc1` [MOC--D--Nle--Gly--Arg--pNA, MOC-D-Nle-Gly-Arg-pNA] (Moc-[dNle]-Gly-Arg-pNA), for which the “kkat /Km” value was determined as 326 M⁻¹ s⁻¹ on rFIXa (human) [1] (substrate MOC-D-Nle-Gly-Arg-pNA, rFIXa 0.48 μmol/l, 16% ethylene glycol); 565 M⁻¹ s⁻¹ on rFIXa (human) [1] (substrate MOC-D-Nle-Gly-Arg-pNA, rFIXa 0.48 μmol/l, 25% ethylene glycol); 552 M⁻¹ s⁻¹ at rFIXa (human) [1] (substrate MOC-D-Nle-Gly-Arg-pNA, rFIXa 0.48 μmol/l, 33% ethylene glycol); 360 M⁻¹ s⁻¹ on rFIXa (human) [1] (substrate MOC-D-Nle-Gly-Arg-pNA, rFIXa 0.48 μmol/l, 41% ethylene glycol); 148 M⁻¹ s⁻¹ at rFIXa (human) [1] (substrate MOC-D-Nle-Gly-Arg-pNA, rFIXa 0.48 μmol/l, 50% ethylene glycol).
Take `N=C(N)c1cccc(CC(NS(=O)(=O)c2ccc3ccccc3c2)C(=O)N2Cc3ccccc3CC2C(=O)O)c1` (centres unmarked) [βNAPS-(3-Am)Phe-TIC-OH, Nα-(2-naphthylsulfonyl)-3-amidino-(D,L)-phenylalanine-1,2,3,4-tetrahydroisoquinoline-3-carboxylic acid]: the “Inhibition of the activity of factor IXa (in %)” value (from here on “Inhibition … (in %)”) on rFIXa (human) [2] (inhibitor 4.1 μmol/l, pH 7.4, 4.1% ethanol, 0.57 μmol/l rFIXa) was found to be 97.2%; at rFIXa (human) [2] (inhibitor 4.1 μmol/l, pH 7.4, 33% ethylene glycol, 0.057 μmol/l rFIXa), 100%; on rFIXa (human) [2] (inhibitor 4.1 μmol/l, pH 8.5, 4.1% ethanol, […] rFIXa) it was 100%; at rFIXa (human) [2] (inhibitor 4.1 μmol/l, pH 8.5, 33% ethylene glycol, […] rFIXa), 100%; at rFIXa (human) [2] (inhibitor 8.2 μmol/l, pH 7.4, 4.1% ethanol, 0.57 μmol/l rFIXa) it was 97.2%; on rFIXa (human) [2] (inhibitor 8.2 μmol/l, pH 7.4, 33% ethylene glycol, 0.057 μmol/l rFIXa), 100%. The “Inhibition … (in %)” value on rFIXa (human) [2] (inhibitor 8.2 μmol/l, pH 8.5, 4.1% ethanol, […] rFIXa) is recorded as 96.2%; at rFIXa (human) [2] (inhibitor 8.2 μmol/l, pH 8.5, 33% ethylene glycol, […] rFIXa), 97.9%; on rFIXa (human) [2] (inhibitor 16.3 μmol/l, pH 7.4, 4.1% ethanol, 0.57 μmol/l rFIXa), 88.2%; at rFIXa (human) [2] (inhibitor 16.3 μmol/l, pH 7.4, 33% ethylene glycol, 0.057 μmol/l rFIXa) it was 85.4%; at rFIXa (human) [2] (inhibitor 16.3 μmol/l, pH 8.5, 4.1% ethanol, […] rFIXa), 86.2%; at rFIXa (human) [2] (inhibitor 16.3 μmol/l, pH 8.5, 33% ethylene glycol, […] rFIXa) it was 88.4%. Moreover, the “Inhibition … (in %)” value at rFIXa (human) [2] (inhibitor 40.8 μmol/l, pH 7.4, 4.1% ethanol, 0.57 μmol/l rFIXa) was found to be 75.4%; at rFIXa (human) [2] (inhibitor 40.8 μmol/l, pH 7.4, 33% ethylene glycol, 0.057 μmol/l rFIXa), 62.6%; at rFIXa (human) [2] (inhibitor 40.8 μmol/l, pH 8.5, 4.1% ethanol, […] rFIXa) it was 77.5%; at rFIXa (human) [2] (inhibitor 40.8 μmol/l, pH 8.5, 33% ethylene glycol, […] rFIXa), 78.4%; at rFIXa (human) [2] (inhibitor 81.6 μmol/l, pH 7.4, 4.1% ethanol, 0.57 μmol/l rFIXa) it was 57.0%; on rFIXa (human) [2] (inhibitor 81.6 μmol/l, pH 7.4, 33% ethylene glycol, 0.057 μmol/l rFIXa), 41.0%. The “Inhibition … (in %)” value amounted to 63.8% at rFIXa (human) [2] (inhibitor 81.6 μmol/l, pH 8.5, 4.1% ethanol, […] rFIXa); 66.0% at rFIXa (human) [2] (inhibitor 81.6 μmol/l, pH 8.5, 33% ethylene glycol, […] rFIXa); 25.7% at rFIXa (human) [2] (inhibitor 163 μmol/l, pH 7.4, 4.1% ethanol, 0.57 μmol/l rFIXa); 28.9% at rFIXa (human) [2] (inhibitor 163 μmol/l, pH 7.4, 33% ethylene glycol, 0.057 μmol/l rFIXa); 48.8% on rFIXa (human) [2] (inhibitor 163 μmol/l, pH 8.5, 4.1% ethanol, […] rFIXa); 45.4% at rFIXa (human) [2] (inhibitor 163 μmol/l, pH 8.5, 33% ethylene glycol, […] rFIXa).
Regarding `CS(=O)(=O)N[C@H](CC1CCC(O)CC1)C(=O)NCC(=O)N[C@@H](CCCNC(=N)N)C(=O)Nc1ccc([N+](=O)[O-])cc1` (stereo partly drawn) [MeSO2 --D--HHT--Gly--Arg--pNA, MeSO2 -D-HHT-Gly-Arg-pNA], the “kkat /Km” value on rFIXa (human) [1] (rFIXa 0.48 μmol/l, 8% ethylene glycol) worked out at 348 M⁻¹ s⁻¹; on rFIXa (human) [1] (rFIXa 0.48 μmol/l, 16% ethylene glycol), 515 M⁻¹ s⁻¹; on rFIXa (human) [1] (rFIXa 0.48 μmol/l, 25% ethylene glycol), 1018 M⁻¹ s⁻¹; at rFIXa (human) [1] (rFIXa 0.48 μmol/l, 33% ethylene glycol) it was 1018 M⁻¹ s⁻¹; on rFIXa (human) [1] (rFIXa 0.48 μmol/l, 41% ethylene glycol), 692 M⁻¹ s⁻¹; on rFIXa (human) [1] (rFIXa 0.48 μmol/l, 50% ethylene glycol), 172 M⁻¹ s⁻¹. Besides, the “kkat /Km” value on native FIXa (human) (8% ethylene glycol) was 299 M⁻¹ s⁻¹; at native FIXa (human) (16% ethylene glycol) it was 737 M⁻¹ s⁻¹; at native FIXa (human) (25% ethylene glycol), 1169 M⁻¹ s⁻¹; at native FIXa (human) (33% ethylene glycol), 1395 M⁻¹ s⁻¹; on native FIXa (human) (41% ethylene glycol) it was 922 M⁻¹ s⁻¹; on native FIXa (human) (50% ethylene glycol), 390 M⁻¹ s⁻¹.

Values taken from patent US6087119A, “Method for determining the catalytic activity of factor IXa” (Roche Diagnostics GmbH, priority 1996, dated 2000).
